Experimental data from ChEMBL document CHEMBL3860108, “Substituent Effects on Drug-Receptor H-bond Interactions: Correlations Useful for the Design of Kinase Inhibitors” (J Med Chem, 2016).

Molecular target: Serine/threonine-protein kinase B-raf (Homo sapiens, UniProt P15056, V600E)
Assay: Inhibition of His6-tagged full length BRAF V600E mutant (2 to 766 residues) (unknown origin) expressed in Baculovirus expression system by BRAMA method

Sequence of Serine/threonine-protein kinase B-raf (P15056 2-766 V600E limits assumed): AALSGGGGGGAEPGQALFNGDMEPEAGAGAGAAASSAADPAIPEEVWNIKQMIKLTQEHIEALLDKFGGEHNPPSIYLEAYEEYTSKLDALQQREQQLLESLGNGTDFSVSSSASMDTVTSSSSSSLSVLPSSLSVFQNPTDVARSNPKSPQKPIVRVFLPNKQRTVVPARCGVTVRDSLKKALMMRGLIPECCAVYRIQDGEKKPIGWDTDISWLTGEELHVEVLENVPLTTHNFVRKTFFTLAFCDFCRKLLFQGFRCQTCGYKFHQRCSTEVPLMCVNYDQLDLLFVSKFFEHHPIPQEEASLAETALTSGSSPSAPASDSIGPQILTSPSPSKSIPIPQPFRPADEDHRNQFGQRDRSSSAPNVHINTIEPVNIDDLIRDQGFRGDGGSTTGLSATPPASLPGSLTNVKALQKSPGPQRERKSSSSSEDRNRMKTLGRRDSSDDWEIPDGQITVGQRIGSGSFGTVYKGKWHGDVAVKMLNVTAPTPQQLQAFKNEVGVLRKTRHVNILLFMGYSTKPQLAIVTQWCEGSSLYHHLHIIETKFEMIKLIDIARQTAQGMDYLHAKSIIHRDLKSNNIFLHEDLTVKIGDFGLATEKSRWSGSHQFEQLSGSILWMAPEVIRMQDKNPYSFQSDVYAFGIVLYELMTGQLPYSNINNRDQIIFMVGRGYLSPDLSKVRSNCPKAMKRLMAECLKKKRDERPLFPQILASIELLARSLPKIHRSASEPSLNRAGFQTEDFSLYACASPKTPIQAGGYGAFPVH

SMILES	IC50
CNS(=O)(=O)c1ccc(N(C)C)c(Nc2ncnc3ccc([N+](=O)[O-])cc23)c1	6.3 µM
CNS(=O)(=O)c1ccc(N(C)C)c(Nc2ncnc3ccc(Cl)cc23)c1	0.4 µM

Molecular target: T1, Serine/threonine-protein kinase TNNI3K (Homo sapiens, UniProt Q59H18)
T1 sequence (Q59H18 whole entry): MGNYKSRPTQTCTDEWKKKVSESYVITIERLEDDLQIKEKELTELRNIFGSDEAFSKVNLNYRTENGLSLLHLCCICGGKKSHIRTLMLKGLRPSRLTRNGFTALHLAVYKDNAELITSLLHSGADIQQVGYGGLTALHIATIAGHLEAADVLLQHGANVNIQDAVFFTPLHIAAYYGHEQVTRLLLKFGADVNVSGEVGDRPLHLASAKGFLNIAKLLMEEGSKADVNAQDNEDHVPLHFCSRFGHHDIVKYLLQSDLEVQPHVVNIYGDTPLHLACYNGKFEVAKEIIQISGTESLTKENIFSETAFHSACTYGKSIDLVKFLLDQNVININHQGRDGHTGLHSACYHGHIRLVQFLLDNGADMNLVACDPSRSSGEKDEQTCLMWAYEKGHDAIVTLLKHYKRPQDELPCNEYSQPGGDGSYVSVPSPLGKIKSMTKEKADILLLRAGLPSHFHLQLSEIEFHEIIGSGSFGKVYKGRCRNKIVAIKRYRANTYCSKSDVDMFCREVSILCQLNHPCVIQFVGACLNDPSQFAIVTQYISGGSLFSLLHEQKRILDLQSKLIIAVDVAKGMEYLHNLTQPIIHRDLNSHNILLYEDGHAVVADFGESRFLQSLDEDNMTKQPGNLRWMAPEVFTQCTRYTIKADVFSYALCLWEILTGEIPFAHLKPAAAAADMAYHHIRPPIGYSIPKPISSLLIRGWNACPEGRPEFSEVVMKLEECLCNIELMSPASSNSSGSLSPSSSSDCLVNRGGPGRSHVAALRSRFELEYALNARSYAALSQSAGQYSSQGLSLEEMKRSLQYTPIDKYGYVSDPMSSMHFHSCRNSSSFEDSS
Assay: Displacement of 5-({[2-({[3-({4-[(5-hydroxy-2-methylphenyl)amino]-2-pyrimidinyl}amino)phenyl]carbonyl}amino)-ethyl]amino}carbonyl)-2-(6-hydroxy-3-oxo-3H-xanthen-9-yl)benzoic acid from His6-MBP-TEV-full length human TNNI3K expressed in Baculovirus expression system after 60 mins by fluorescence polarization assay

IC50	SMILES
80 nM	CNS(=O)(=O)c1ccc(N(C)C)c(Nc2cc(Nc3ccc(Cl)cc3)ncn2)c1
25 nM	CNS(=O)(=O)c1ccc(OCC(F)(F)F)c(Nc2cc(Nc3ccc(Cl)cc3)ncn2)c1
160 nM	CNS(=O)(=O)c1ccc(C)c(Nc2cc(Nc3ccc(Cl)cc3)ncn2)c1
200 nM	CNS(=O)(=O)c1ccc(F)c(Nc2cc(Nc3ccc(Cl)cc3)ncn2)c1
80 nM	CNS(=O)(=O)c1cccc(Nc2cc(Nc3ccc(Cl)cc3)ncn2)c1
800 nM	CNS(=O)(=O)c1ccc(N)c(Nc2cc(Nc3ccc(Cl)cc3)ncn2)c1
1600 nM	CCCNc1ccc(S(=O)(=O)NC)cc1Nc1cc(Nc2ccc(Cl)cc2)ncn1
63 nM	CNS(=O)(=O)c1ccc(N2CCC[C@@H]2C(F)(F)F)c(Nc2cc(Nc3ccc(Cl)cc3)ncn2)c1
1000 nM	CNS(=O)(=O)c1ccc(N2CCC(F)(F)C2)c(Nc2cc(Nc3ccc(Cl)cc3)ncn2)c1
32 nM	CNS(=O)(=O)c1ccc(OC(F)(F)F)c(Nc2cc(Nc3ccc(Cl)cc3)ncn2)c1
130 nM	CNS(=O)(=O)c1ccc(Cl)c(Nc2cc(Nc3ccc(Cl)cc3)ncn2)c1
400 nM	CNS(=O)(=O)c1ccc(SC)c(Nc2cc(Nc3ccc(Cl)cc3)ncn2)c1
63 nM	CCN(C)c1ccc(S(=O)(=O)NC)cc1Nc1cc(Nc2ccc(Cl)cc2)ncn1
50 nM	CCOc1ccc(S(=O)(=O)NC)cc1Nc1cc(Nc2ccc(Cl)cc2)ncn1
3200 nM	CCNc1ccc(S(=O)(=O)NC)cc1Nc1cc(Nc2ccc(Cl)cc2)ncn1
50 nM	CNS(=O)(=O)c1ccc(OC)c(Nc2cc(Nc3ccc(Cl)cc3)ncn2)c1
2500 nM	CNc1ccc(S(=O)(=O)NC)cc1Nc1cc(Nc2ccc(Cl)cc2)ncn1
40 nM	CNS(=O)(=O)c1ccc(N(C)CC(F)(F)F)c(Nc2cc(Nc3ccc(Cl)cc3)ncn2)c1
160 nM	CNS(=O)(=O)c1ccc(O)c(Nc2cc(Nc3ccc(Cl)cc3)ncn2)c1

The remaining lines, values behind:

SMILES	IC50
CCNc1ccc(S(=O)(=O)NC)cc1Nc1ncnc2[nH]ccc12	2500 nM
CNS(=O)(=O)c1ccc(N(C)C)c(Nc2ncnc3[nH]cc(-c4ccco4)c23)c1	< 10 nM
CNS(=O)(=O)c1ccc(F)c(Nc2ncnc3[nH]ccc23)c1	250 nM
CNS(=O)(=O)c1ccc(N2CCC(F)(F)C2)c(Nc2ncnc3[nH]ccc23)c1	130 nM
CNS(=O)(=O)c1ccc(-c2ccccc2)c(Nc2ncnc3[nH]ccc23)c1	200 nM
CNS(=O)(=O)c1ccc(N2C(C)CCC2C)c(Nc2ncnc3[nH]ccc23)c1 (stereo not given)	20 nM
CNS(=O)(=O)c1ccc(N(C)C)c(Nc2ncnc(Nc3ccc(Cl)cc3)n2)c1	10 nM
CNS(=O)(=O)c1ccc(N(C)C)c(Nc2ncnc3ccc([N+](=O)[O-])cc23)c1	2500 nM
CNS(=O)(=O)c1ccc(N2C(C)CCC2C)c(Nc2cc(Nc3ccc(Cl)cc3)ncn2)c1 (stereo not given)	80 nM
CNS(=O)(=O)c1ccc(N2CCCC2C)c(Nc2ncnc3[nH]ccc23)c1 (stereo not given)	130 nM
CNS(=O)(=O)c1ccc(OCC(F)(F)F)c(Nc2ncnc3[nH]ccc23)c1	16 nM
CNS(=O)(=O)c1ccc(N2CCCC2C)c(Nc2cc(Nc3ccc(Cl)cc3)ncn2)c1 (stereo not given)	250 nM
CNS(=O)(=O)c1ccc(N(C)C)c(Nc2ncnc3[nH]cnc23)c1	16 nM
CNS(=O)(=O)c1ccc(SC)c(Nc2ncnc3[nH]ccc23)c1	130 nM
CNS(=O)(=O)c1ccc(N2CCCC(F)(F)C2)c(Nc2ncnc3[nH]ccc23)c1	< 10 nM
CNS(=O)(=O)c1ccc(N(C)C)c(Nc2ncnc3ncccc23)c1	5000 nM
CNS(=O)(=O)c1ccc(O)c(Nc2ncnc3[nH]ccc23)c1	40 nM
CNS(=O)(=O)c1ccc(N2CCCC2)c(Nc2cc(Nc3ccc(Cl)cc3)ncn2)c1	1300 nM
CNS(=O)(=O)c1ccc(OC(F)(F)F)c(Nc2ncnc3[nH]ccc23)c1	50 nM
CNS(=O)(=O)c1ccc(N(C)C)c(Nc2ncnc3ccc(Cl)cc23)c1	400 nM
CNS(=O)(=O)c1ccc(N2CCCCC2)c(Nc2ncnc3[nH]ccc23)c1	13 nM
CCN(C)c1ccc(S(=O)(=O)NC)cc1Nc1ncnc2[nH]ccc12	32 nM
CNS(=O)(=O)c1ccc(N(C)C)c(Nc2ncnc3[nH]c4ccccc4c23)c1	50 nM
CNS(=O)(=O)c1ccc(N2CCCC2)c(Nc2ncnc3[nH]ccc23)c1	320 nM
CNS(=O)(=O)c1ccc(OC)c(Nc2ncnc3[nH]ccc23)c1	100 nM
CNS(=O)(=O)c1ccc(N2CCCC(F)(F)C2)c(Nc2cc(Nc3ccc(Cl)cc3)ncn2)c1	40 nM
CCOc1ccc(S(=O)(=O)NC)cc1Nc1ncnc2[nH]ccc12	32 nM
CCCNc1ccc(S(=O)(=O)NC)cc1Nc1ncnc2[nH]ccc12	2500 nM
CNS(=O)(=O)c1ccc(N(C)CC(F)(F)F)c(Nc2ncnc3[nH]ccc23)c1	10 nM
